Measured values: patent US11642309B2, “Aqueous compositions comprising bilastine and mometasone” (FAES FARMA, S.A., priority 2017, dated 2023)
Converted amounts (≈) assume the structure as drawn.

What was measured:
Assay type in all cases: physicochemical
[1] = Solubility of bilastine and mometasone furoate monohydrate in formulations with HPBCD 12.5 to 100 mg/mL at pH 4.3, 4.6, 4.9 (Example 3); details: for solubility: thermodynamic from solid
Procedure: (§1) HPLC measurements were conducted using a HPLC-HCLASS Chromatographic System with PDA or UV-VIS detector equipped with a Xbridge Shield RP18 3.5 μm […] Column. Mobile phases were ammonium bicarbonate (10 mM pH 9, FLUKA), acetonitrile (FISCHER) and methanol ([…]). Samples were submitted to Acrodisc 32 mm Sryinge Filters with 1.2 μm Supor Membrane, Batch: 18-1077 (PALL).
Six different formulations (with mometasone furoate monohydrate and the rest of excipients as defined in example 2) were prepared (see table below). The six formulations had amounts of HPBCD from 12.5 to 100 mg/mL. Then, in each of them an excessive amount of bilastine was added and the maximum solubility was tested. Furthermore, the percentage of the mometasone furoate dissolved was also tested. All the measurements were conducted at time 0.

[2] = Solubility of bilastine and mometasone furoate monohydrate in Kolliphor RH40 formulations (Example 4)
Procedure: To this end, aqueous formulations of Kolliphor RH40 at concentrations 0, 5, 15, 25 and 50 mg/mL and at pH values of 3.7, 4.0, 4.3 and 4.6 were prepared.
Additionally, 0.5 mg/mL of mometasone furoate monohydrate was added to each formulation. The influence of Kolliphor RH40 in bilastine solubility is represented in FIG. 3 in graphs A and B therein. It is shown that, at pH values above 4.3, Kolliphor RH40 at a concentration of 50 mg/mL is insufficient in solubilizing 8 mg/mL of Bilastine (FIG. 3 in graph A therein. In addition, at the concentration of 50 mg/mL and pH of 4.3, Kolliphor RH40 solubilizes more than 10% of the added mometasone furoate monohydrate (FIG. 3 in graph B therein.

[3] = Solubility of bilastine with α-cyclodextrin (FIG. 2); details: aqueous composition with α-cyclodextrin, aqueous with cosolvent or surfactant or cyclodextrin; 5 wt. % α-cyclodextrine instead of HPBCD, pH 4.5, FIG. 2
[4] = Solubility of bilastine in water; details: solubility depends on the pH
[5] = Mometasone impurities under forced stability conditions, increasing HPBCD (Example 7); details: pH 4.6, 50° C., 3 months
Procedure: The percentage of Mometasone was calculated-using the following formula: […]
The percentage of Mometasone degradation products was calculated using the following formula: […]
To evaluate the influence that the cyclodextrin HPBCD had on the impurities of mometasone, formulations similar to the one described in example 1 (see table therein) were studied at pH 4.6 for increasing cyclodextrin concentrations of from 25 to 95 mg/mL. The formulations were submitted to forced stability conditions at 50° C. for a 3-month period. The results were obtained from HPLC measurements.

[6] = Stability of formulas with HPBCD in stability chambers (Example 6); details: HPBCD 25 mg/mL
Procedure: as §1
The three formulas (bilastine at a concentration of 2, 4 and 8 mg/mL) were placed in stability chambers wherein the conditions were 25° C./40% RH and 40° C./25% RH for the duration of 6 or 12 months.

[7] = Stability of formulation with Kolliphor RH40 in stability chambers (Example 5); details: Kolliphor RH40 50 mg/mL formulation
Procedure: as §1
In the formulation of the present example, sorbitan monooleate acts as an antifoam agent. A batch manufactured according to the table above was prepared, packaged and placed in stability chambers wherein the conditions were 25° C./40% RH and 40° C./25% RH for the duration of 3 months.

Structure (SMILES): CCOCCn1c(C2CCN(CCc3ccc(C(C)(C)C(=O)O)cc3)CC2)nc2ccccc21 [Bilastine, 2-[4-(2-{4-[1-(2-ethoxyethyl)-1H-benzimidazol-2-yl]-1-piperidinyl}ethyl)phenyl]-2-methylpropanoic acid]
- solubility ([1]; aqueous with cosolvent or surfactant or cyclodextrin): ≥ 8000 µg/mL
- solubility ([1]; pH 4.6, aqueous with cosolvent or surfactant or cyclodextrin): ~10000 µg/mL (≈ 21.6 mM)
- solubility ([2]; aqueous with cosolvent or surfactant or cyclodextrin, thermodynamic from solid): < 8000 µg/mL
- solubility [3]: < 1000 µg/mL
- solubility in water [4]: slightly soluble

Structure (SMILES): C[C@@H]1C[C@H]2[C@@H]3CCC4=CC(=O)C=C[C@]4(C)[C@@]3(Cl)[C@@H](O)C[C@]2(C)[C@@]1(OC(=O)c1ccco1)C(=O)CCl.O [Mometasone Furoate monohydrate, Mometasone furoate monohydrate]
- Dissolved mometasone (%) ([5]; HPBCD 25 mg/mL): 0.7%
- Mometasone impurities (%) ([5]; HPBCD 25 mg/mL): 0.2%
- Dissolved mometasone (%) ([5]; HPBCD 50 mg/mL): 3.0%
- Mometasone impurities (%) ([5]; HPBCD 50 mg/mL): 0.7%
- Dissolved mometasone (%) ([5]; HPBCD 65 mg/mL): 5.2%
- Mometasone impurities (%) ([5]; HPBCD 65 mg/mL): 1.0%
- Dissolved mometasone (%) ([5]; HPBCD 85 mg/mL): 7.2%
- Mometasone impurities (%) ([5]; HPBCD 85 mg/mL): 1.3%
- Dissolved mometasone (%) ([5]; HPBCD 95 mg/mL): 10.5%
- Mometasone impurities (%) ([5]; HPBCD 95 mg/mL): 1.9%
- Total degradation products % w/w ([6]; formula Bilastine 2 mg/mL, 25° C. 40% RH 9 months): 0.05% w/w
- Total degradation products % w/w ([6]; formula Bilastine 2 mg/mL, 25° C. 40% RH 12 months): 0.05% w/w
- Total degradation products % w/w ([6]; formula Bilastine 2 mg/mL, 40° C. 25% RH 3 months): 0.15% w/w
- Total degradation products % w/w ([6]; formula Bilastine 2 mg/mL, 40° C. 25% RH 6 months): 0.20% w/w
- Total degradation products % w/w ([6]; formula Bilastine 2 mg/mL, T0): 0.05% w/w
- Total degradation products % w/w ([6]; formula Bilastine 4 mg/mL, 25° C. 40% RH 9 months): 0.05% w/w
- Total degradation products % w/w ([6]; formula Bilastine 4 mg/mL, 25° C. 40% RH 12 months): 0.05% w/w
- Total degradation products % w/w ([6]; formula Bilastine 4 mg/mL, 40° C. 25% RH 3 months): 0.14% w/w
- Total degradation products % w/w ([6]; formula Bilastine 4 mg/mL, 40° C. 25% RH 6 months): 0.18% w/w
- Total degradation products % w/w ([6]; formula Bilastine 4 mg/mL, T0): 0.05% w/w
- Total degradation products % w/w ([6]; formula Bilastine 8 mg/mL, 25° C. 40% RH 9 months): 0.05% w/w
- Total degradation products % w/w ([6]; formula Bilastine 8 mg/mL, 25° C. 40% RH 12 months): 0.05% w/w
- Total degradation products % w/w ([6]; formula Bilastine 8 mg/mL, 40° C. 25% RH 3 months): 0.14% w/w
- Total degradation products % w/w ([6]; formula Bilastine 8 mg/mL, 40° C. 25% RH 6 months): 0.17% w/w
- Total degradation products % w/w ([6]; formula Bilastine 8 mg/mL, T0): 0.05% w/w
- solubility of mometasone furoate ([1]; HPBCD 75 mg/ml (7.5 wt. %), FIG. 1 graph B): around 4 mg/ml
- added mometasone furoate monohydrate solubilized ([2]; Kolliphor RH40 50 mg/mL, pH 4.3, 0.5 mg/mL added, FIG. 3 graph B): more than 10%
- Total degradation products % w/w ([7]; 25° C./40% RH, 3 months): 0.31% w/w
- Total degradation products % w/w ([7]; 40° C./25% RH, 3 months): 0.33% w/w
- Total degradation products % w/w ([7]; T0): 0.15% w/w
